From patent publication US20240228458A1, “PYRIMIDINE DERIVATIVE HAVING PROTEIN KINASE INHIBITORY ACTIVITY, AND THERAPEUTIC PHARMACEUTICAL COMPOSITION COMPRISING SAME” (THERAPEX CO., LTD., priority 2021, published 2024) come the findings set out here.

Each structure is given as a SMILES string.

Format in all cases: cell-based
Assay [1] concerns Ba/F3 cells expressing L858R/T790M (EGFR-LT). Nature of the assay: Growth inhibition (GI50) of Ba/F3 cells expressing L858R/T790M (EGFR-LT), Celltiter glo. The settings on record: Mus musculus, BaF3, 72 h. The procedure, abridged: (§1)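 Ba/F3 cells carrying the given EGFR variant were seeded at 100,000 cells/ml and, 4 h later, treated with 10-point, 4-fold serial dilutions prepared from a 2 mM stock (0.5% DMSO final). After 72 h at 37 °C and 5% CO2, viable cells were quantified by CellTiter-Glo luminescence to derive GI50.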
Background: Cellular ATP, detected with luciferase, serves as a proxy for viable cell number.

Assay [2] deals with Ba/F3 cells expressing EGFR-wt. Put plainly: Growth inhibition (GI50) of Ba/F3 cells expressing EGFR-wt, Celltiter glo. The note with it: Mus musculus, BaF3, 72 h. The gist of the method:
as §1

The subject of another assay is parental Ba/F3 cell line. Put plainly: Growth inhibition (GI50) of the parental Ba/F3 cell line (not introduced with EGFR variants), Celltiter glo. The note with it: Mus musculus, BaF3, 72 h, parental Ba/F3 cells. The gist of the method:
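Viable cell count by CellTiter-Glo after 72 h at 37 °C gave GI50 values (μM, 50% growth inhibition). Cells lacking EGFR variants were seeded at 100,000 cells/ml and dosed 4 h later with 4-fold serial dilutions from a 2 mM stock, 0.5% DMSO.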

Assay [3] deals with Ba/F3 cells expressing del19/T790M/C797S (EGFR-DTC). Nature of the assay: Growth inhibition (GI50) of Ba/F3 cells expressing del19/T790M/C797S (EGFR-DTC), Celltiter glo. The note with it: Mus musculus, BaF3, 72 h. The gist of the method: as §1
Assay [4] deals with Ba/F3 cells expressing del19/T790M (EGFR-DT). Put plainly: Growth inhibition (GI50) of Ba/F3 cells expressing del19/T790M (EGFR-DT), Celltiter glo. The settings on record: Mus musculus, BaF3, 72 h. The procedure, abridged: as §1
Assay [5] relates to Ba/F3 cells expressing L858R/T790M/C797S (EGFR-LTC). Nature of the assay: Growth inhibition (GI50) of Ba/F3 cells expressing L858R/T790M/C797S (EGFR-LTC), Celltiter glo. The settings on record: Mus musculus, BaF3, 72 h. The gist of the method:
as §1

Turning to `COc1cc(N2CCC(N3CCN(C)CC3)CC2)c(C)cc1Nc1ncc(Br)c(Nc2cc3c(cc2N(C)S(C)(=O)=O)CCO3)n1` [Example 250, N-(6-((5-bromo-2-((2-methoxy-5-methyl-4-(4-(4-methylpiperazin-1-yl)piperidin-1-yl)phenyl)amino)pyrimidin-4-yl)amino)-2,3-dihydrobenzofuran-5-yl)-N-methylmethanesulfonamide], the 50% growth inhibitory concentration (GI50) (commonly the concentration at which growth is held to half of that of the control) in assay [1] is 1 to 25 nM; in assay [2] it was 100 to 500 nM; in the assay with parental Ba/F3 cell line it was 2000 to 10000 nM; in assay [3], 1 to 25 nM; in assay [4], 1 to 25 nM; in assay [5], 1 to 25 nM.
`Cc1cc(Nc2ncc(Br)c(Nc3cc4c(cc3N(C)S(C)(=O)=O)CCO4)n2)c(Cl)cc1N1CCC(N2CCN(C)CC2)CC1` [Example 251, N-(6-((5-bromo-2-((2-chloro-5-methyl-4-(4-(4-methylpiperazin-1-yl)piperidin-1-yl)phenyl)amino)pyrimidin-4-yl)amino)-2,3-dihydrobenzofuran-5-yl)-N-methylmethanesulfonamide]: the 50% growth inhibitory concentration (GI50) in assay [1] was in the range of 25 to 100 nM; in assay [2] it was 100 to 500 nM; with parental Ba/F3 cell line, 2000 to 10000 nM; in assay [3], 25 to 100 nM; in assay [4] it was 1 to 25 nM; in assay [5] it was 1 to 25 nM.
For `COc1cc(N2CCC(N3CCN(C)CC3)CC2)c(Cl)cc1Nc1ncc(Br)c(Nc2cc3c(cc2N(C)S(C)(=O)=O)CCO3)n1` [Example 252, N-(6-((5-bromo-2-((5-chloro-2-methoxy-4-(4-(4-methylpiperazin-1-yl)piperidin-1-yl)phenyl)amino)pyrimidin-4-yl)amino)-2,3-dihydrobenzofuran-5-yl)-N-methylmethanesulfonamide], the concentration for 50% growth inhibition (GI50) in assay [1] is 1 to 25 nM; in assay [2], 25 to 100 nM; in the assay on parental Ba/F3 cell line, 2000 to 10000 nM; in assay [3], 25 to 100 nM; in assay [4] it was 1 to 25 nM; in assay [5], 1 to 25 nM.
With `CN1CCN(C2CCN(c3cc(Cl)c(Nc4ncc(Br)c(Nc5cc6c(cc5N(C)S(C)(=O)=O)CCO6)n4)cc3Cl)CC2)CC1` [Example 253, N-(6-((5-bromo-2-((2,5-dichloro-4-(4-(4-methylpiperazin-1-yl)piperidin-1-yl)phenyl)amino)pyrimidin-4-yl)amino)-2,3-dihydrobenzofuran-5-yl)-N-methylmethanesulfonamide], the 50% growth inhibitory concentration (GI50) in assay [1] fell in the range of 25 to 100 nM; in assay [2], 500 to 2000 nM; with parental Ba/F3 cell line, 100 to 500 nM; in assay [3], 1 to 25 nM; in assay [4] it was 25 to 100 nM; in assay [5] it was 25 to 100 nM.
Take `CCc1cc(Nc2ncc(Br)c(Nc3cc4c(cc3N(C)S(C)(=O)=O)CCO4)n2)c(OC)cc1N1CCC(N2CCN(C)CC2)CC1` [Example 254, N-(6-((5-bromo-2-((5-ethyl-2-methoxy-4-(4-(4-methylpiperazin-1-yl)piperidin-1-yl)phenyl)amino)pyrimidin-4-yl)amino)-2,3-dihydrobenzofuran-5-yl)-N-methylmethanesulfonamide]: the GI50 in assay [1] is 25 to 100 nM; in assay [2], 500 to 2000 nM; with parental Ba/F3 cell line, 500 to 2000 nM; in assay [3] it was 1 to 25 nM; in assay [4], 1 to 25 nM; in assay [5], 25 to 100 nM.
As to `COc1cc(N2CCC(N3CCN(C(F)(F)F)CC3)CC2)c(C)cc1Nc1ncc(Br)c(Nc2cc3c(cc2N(C)S(C)(=O)=O)CCO3)n1` [Example 255, N-(6-((5-bromo-2-((2-methoxy-5-methyl-4-(4-(4-(trifluoromethyl)piperazin-1-yl)piperidin-1-yl)phenyl)amino)pyrimidin-4-yl)amino)-2,3-dihydrobenzofuran-5-yl)-N-methylmethanesulfonamide], the 50% growth inhibitory concentration (GI50) in assay [1] was 100 to 500 nM; in assay [2] it was 2000 to 10000 nM; in the assay with parental Ba/F3 cell line it was 2000 to 10000 nM; in assay [3], 25 to 100 nM; in assay [4], 25 to 100 nM; in assay [5], 100 to 500 nM.
For `COc1cc(N2CCC(N3CCN(C)CC3)CC2)c(F)cc1Nc1ncc(Br)c(Nc2cc3c(cc2N(C)S(C)(=O)=O)CCO3)n1` [Example 256, N-(6-((5-bromo-2-((5-fluoro-2-methoxy-4-(4-(4-methylpiperazin-1-yl)piperidin-1-yl)phenyl)amino)pyrimidin-4-yl)amino)-2,3-dihydrobenzofuran-5-yl)-N-methylmethanesulfonamide], the 50% growth inhibitory concentration (GI50) in assay [1] fell in the range of 100 to 500 nM; in assay [2], 100 to 500 nM; with parental Ba/F3 cell line it was 100 to 500 nM; in assay [3] it was 25 to 100 nM; in assay [4], 1 to 25 nM; in assay [5], 100 to 500 nM.
As for `CN1CCN(C2CCN(c3cc(Cl)c(Nc4ncc(Cl)c(Nc5cc6c(cc5N(C)S(C)(=O)=O)CCO6)n4)cc3Cl)CC2)CC1` [Example 259, N-(6-((5-chloro-2-((2,5-dichloro-4-(4-(4-methylpiperazin-1-yl)piperidin-1-yl)phenyl)amino)pyrimidin-4-yl)amino)-2,3-dihydrobenzofuran-5-yl)-N-methylmethanesulfonamide], the 50% growth inhibitory concentration (GI50) in assay [1] was 25 to 100 nM; in assay [2], 500 to 2000 nM; with parental Ba/F3 cell line, 500 to 2000 nM; in assay [3], 1 to 25 nM; in assay [4], 25 to 100 nM; in assay [5] it was 100 to 500 nM.
Consider `COc1ccc(N(C)S(C)(=O)=O)c(Nc2nc(Nc3cc(C)c(N4CCC(N5CCN(C)CC5)CC4)cc3OC)ncc2Cl)c1` [Example 260, N-(2-((5-chloro-2-((2-methoxy-5-methyl-4-(4-(4-methylpiperazin-1-yl)piperidin-1-yl)phenyl)amino)pyrimidin-4-yl)amino)-4-methoxyphenyl)-N-methylmethanesulfonamide], for which the 50% growth inhibitory concentration (GI50) is 25 to 100 nM in assay [1]; 100 to 500 nM in assay [2]; 2000 to 10000 nM in the assay with parental Ba/F3 cell line; 100 to 500 nM in assay [3]; 1 to 25 nM in assay [4]; 100 to 500 nM in assay [5].
`COc1cc(N2CCC(N3CCN(C4CC4)CC3)CC2)c(C)cc1Nc1ncc(Br)c(Nc2cc3c(cc2N(C)S(C)(=O)=O)CCO3)n1` [Example 261, N-(6-((5-bromo-2-((4-(4-(4-cyclopropylpiperazin-1-yl)piperidin-1-yl)-2-methoxy-5-methylphenyl)amino)pyrimidin-4-yl)amino)-2,3-dihydrobenzofuran-5-yl)-N-methylmethanesulfonamide]: the concentration for 50% growth inhibition (GI50) in assay [1] is 25 to 100 nM; in assay [2], 25 to 100 nM; in the assay with parental Ba/F3 cell line, 2000 to 10000 nM; in assay [3], 100 to 500 nM; in assay [4], 1 to 25 nM; in assay [5] it was 25 to 100 nM.
Take `COc1cc(N2CCC(N3CCC(N(C)C)C3)CC2)c(C)cc1Nc1ncc(Br)c(Nc2cc3c(cc2N(C)S(C)(=O)=O)CCO3)n1` (stereo not drawn) [Example 262, N-(6-((5-bromo-2-((4-(4-(3-(dimethylamino)pyrrolidin-1-yl)piperidin-1-yl)-2-methoxy-5-methylphenyl)amino)pyrimidin-4-yl)amino)-2,3-dihydrobenzofuran-5-yl)-N-methylmethanesulfonamide]: the GI50 in assay [1] was in the range of 25 to 100 nM; in assay [2] it was 100 to 500 nM; in the assay on parental Ba/F3 cell line it was 25 to 100 nM; in assay [3], 25 to 100 nM; in assay [4], 1 to 25 nM; in assay [5] it was 25 to 100 nM.
